Test [1] deals with Eukaryotic translation initiation factor 4E (Mus musculus, UniProt P63073). Nature of the test: eIF4E–eIF4G protein interaction inhibitors, dose response, biochemical, TR-FRET (AID 855).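 Note: potency for disrupting eIF4E binding to eIF4GI seen as loss of FRET.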 Format: functional.
In test [2] the target is E3 ubiquitin-protein ligase XIAP (Homo sapiens, UniProt P98170). Briefly: Counter Screen using XIAP-Bir3 for Chemical Antagonists of Bir1/2 domains of IAP-family anti-apoptotic proteins. [Related pubchem assays (depositor defined):AID1018, AID1449, AID1514, AID1638, AID1749, AID1750, AID488957, AID488963].
The nature of test [3]: Vero cell cytotoxicity, dose response, cytotoxicity control for Vif-APOBEC3G degradation inhibitor project, Vero cells (AID 1117358). Format: functional. The following applies: Human immunodeficiency virus 1, Vero.
A short description of another test: cells. Format: functional, cell-based.
A further test concerns the target Cytochrome P450 2D6 (Homo sapiens, UniProt P10635).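 Note: CYP2D6 member of a cytochrome P450 panel assay.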
A further test concerns the target T1, Cytochrome P450 1A2 (Homo sapiens, UniProt P05177).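 Note: PubChem cytochrome P450 panel assay, CYP1A2 panel member.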
T1 sequence (P05177 whole entry): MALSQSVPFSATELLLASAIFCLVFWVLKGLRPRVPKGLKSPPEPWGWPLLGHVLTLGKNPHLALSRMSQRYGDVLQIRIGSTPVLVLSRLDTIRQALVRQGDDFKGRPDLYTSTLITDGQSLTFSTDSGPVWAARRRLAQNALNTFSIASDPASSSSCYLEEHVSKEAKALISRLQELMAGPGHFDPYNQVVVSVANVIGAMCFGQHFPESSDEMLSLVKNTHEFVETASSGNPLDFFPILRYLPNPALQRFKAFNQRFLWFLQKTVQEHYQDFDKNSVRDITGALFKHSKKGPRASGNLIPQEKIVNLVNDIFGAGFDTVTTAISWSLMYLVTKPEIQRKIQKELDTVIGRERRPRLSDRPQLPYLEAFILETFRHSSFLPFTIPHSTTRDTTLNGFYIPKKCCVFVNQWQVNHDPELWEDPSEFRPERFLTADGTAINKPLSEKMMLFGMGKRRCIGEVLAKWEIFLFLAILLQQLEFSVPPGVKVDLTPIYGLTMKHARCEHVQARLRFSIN

In test [4] the target is Intestinal-type alkaline phosphatase (Mus musculus, UniProt P24822). Briefly: mouse intestinal alkaline phosphatase activators, dose response, biochemical, luminescence, uHTS hits (AID 488783). The test is classed as functional.
Another test concerns the target T2, Hexokinase HKDC1 (Homo sapiens, UniProt Q2TB90).
T2 sequence (Q2TB90 whole entry): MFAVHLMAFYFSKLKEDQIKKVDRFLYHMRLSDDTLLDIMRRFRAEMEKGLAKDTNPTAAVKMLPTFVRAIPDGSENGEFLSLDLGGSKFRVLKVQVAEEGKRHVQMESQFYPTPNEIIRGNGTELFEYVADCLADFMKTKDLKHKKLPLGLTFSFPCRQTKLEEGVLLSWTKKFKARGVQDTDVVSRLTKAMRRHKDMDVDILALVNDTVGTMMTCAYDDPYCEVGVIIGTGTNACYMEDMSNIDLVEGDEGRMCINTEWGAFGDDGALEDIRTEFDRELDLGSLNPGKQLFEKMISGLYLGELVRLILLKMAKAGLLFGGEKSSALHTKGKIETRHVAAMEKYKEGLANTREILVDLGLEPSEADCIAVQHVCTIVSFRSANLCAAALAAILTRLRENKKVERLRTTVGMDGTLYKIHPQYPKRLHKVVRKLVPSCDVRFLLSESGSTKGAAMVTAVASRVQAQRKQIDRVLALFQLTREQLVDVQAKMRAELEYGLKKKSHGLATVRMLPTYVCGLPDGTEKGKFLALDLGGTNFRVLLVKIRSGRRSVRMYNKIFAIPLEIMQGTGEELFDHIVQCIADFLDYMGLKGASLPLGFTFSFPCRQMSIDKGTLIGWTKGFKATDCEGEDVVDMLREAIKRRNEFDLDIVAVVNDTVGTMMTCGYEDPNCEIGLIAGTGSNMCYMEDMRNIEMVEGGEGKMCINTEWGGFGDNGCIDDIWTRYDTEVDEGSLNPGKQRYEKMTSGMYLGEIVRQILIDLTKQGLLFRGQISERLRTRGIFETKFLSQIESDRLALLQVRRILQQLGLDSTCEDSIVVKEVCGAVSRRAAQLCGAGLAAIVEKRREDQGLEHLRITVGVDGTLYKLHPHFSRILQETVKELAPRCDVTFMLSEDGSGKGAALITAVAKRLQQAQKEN
Nature of the test: SAR analysis of small molecule inhibitors of hexokinase domain containing I (HKDC1). [Related pubchem assays (depositor defined):AID493160, AID493190]. The test is classed as functional.

Test [5] has as its target T3, Sentrin-specific protease 8 (Homo sapiens, UniProt Q96LD8).
T3 sequence (Q96LD8 whole entry): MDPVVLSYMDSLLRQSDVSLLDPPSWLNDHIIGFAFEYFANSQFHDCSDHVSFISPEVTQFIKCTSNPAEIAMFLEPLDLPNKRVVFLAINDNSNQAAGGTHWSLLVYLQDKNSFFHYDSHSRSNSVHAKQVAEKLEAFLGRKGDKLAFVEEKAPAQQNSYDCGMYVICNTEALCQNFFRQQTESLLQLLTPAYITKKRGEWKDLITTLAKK
The test is classed as functional.

Test [6] in a line: inhibitors of firefly luciferase expression or activity, dose response, H4 neuroglioma cells, luminescence (AID 1990). Format: functional, cell-based.
Test [7] concerns the target T4, Rac GTPase-activating protein 1 (Homo sapiens, UniProt Q9H0H5).
T4 sequence (Q9H0H5 whole entry): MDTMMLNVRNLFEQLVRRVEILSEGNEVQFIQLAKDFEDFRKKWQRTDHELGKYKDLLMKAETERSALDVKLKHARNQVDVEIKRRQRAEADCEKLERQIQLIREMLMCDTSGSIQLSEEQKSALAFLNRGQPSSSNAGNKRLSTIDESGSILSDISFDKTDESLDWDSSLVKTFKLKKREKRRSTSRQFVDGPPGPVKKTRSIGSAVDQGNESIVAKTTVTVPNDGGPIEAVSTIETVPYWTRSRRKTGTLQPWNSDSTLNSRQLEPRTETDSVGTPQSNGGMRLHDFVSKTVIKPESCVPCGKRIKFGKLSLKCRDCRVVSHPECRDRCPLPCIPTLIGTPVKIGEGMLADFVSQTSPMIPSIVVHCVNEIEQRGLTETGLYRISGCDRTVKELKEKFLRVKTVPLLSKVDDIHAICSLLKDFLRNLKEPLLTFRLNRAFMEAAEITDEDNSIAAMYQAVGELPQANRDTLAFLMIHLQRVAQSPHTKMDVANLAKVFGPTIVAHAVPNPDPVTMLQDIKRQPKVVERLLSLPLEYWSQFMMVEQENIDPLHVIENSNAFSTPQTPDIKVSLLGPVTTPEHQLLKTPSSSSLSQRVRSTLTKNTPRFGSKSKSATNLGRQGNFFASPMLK
Nature of the test: MgcRacGAP GTPase-activating activity inhibitors, confirmation, biochemical, ADP Hunter fluorescence, primary and confirmatory (AID 624330). Format: functional.

Test [8] is described as follows: HeLa cell cytotoxicity, dose response, cytotoxicity control for MgcRacGAP inhibitor project (AID 624300). Format: functional.

Calls of active or inactive are those of the source.

Chain of Eukaryotic translation initiation factor 4E (P63073 whole entry): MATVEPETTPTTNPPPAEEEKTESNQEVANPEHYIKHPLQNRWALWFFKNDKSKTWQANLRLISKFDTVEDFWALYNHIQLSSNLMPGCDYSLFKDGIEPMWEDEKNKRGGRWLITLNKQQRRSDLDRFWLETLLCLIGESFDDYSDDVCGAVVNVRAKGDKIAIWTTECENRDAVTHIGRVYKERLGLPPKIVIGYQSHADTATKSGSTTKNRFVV
Chain of Cytochrome P450 2D6 (P10635 whole entry): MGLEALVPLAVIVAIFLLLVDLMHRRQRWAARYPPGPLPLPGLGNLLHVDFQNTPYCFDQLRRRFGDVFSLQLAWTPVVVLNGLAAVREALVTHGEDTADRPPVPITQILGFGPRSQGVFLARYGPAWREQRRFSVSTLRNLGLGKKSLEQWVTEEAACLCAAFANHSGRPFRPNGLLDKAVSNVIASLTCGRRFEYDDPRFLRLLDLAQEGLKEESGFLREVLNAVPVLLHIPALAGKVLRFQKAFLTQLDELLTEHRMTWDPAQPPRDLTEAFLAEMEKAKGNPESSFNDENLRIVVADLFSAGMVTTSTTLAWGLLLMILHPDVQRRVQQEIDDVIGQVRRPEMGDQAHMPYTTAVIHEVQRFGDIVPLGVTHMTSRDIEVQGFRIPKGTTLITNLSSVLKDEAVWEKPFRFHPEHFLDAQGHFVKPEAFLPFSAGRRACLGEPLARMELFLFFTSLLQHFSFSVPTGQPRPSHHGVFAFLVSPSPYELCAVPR
Chain of E3 ubiquitin-protein ligase XIAP (P98170 whole entry): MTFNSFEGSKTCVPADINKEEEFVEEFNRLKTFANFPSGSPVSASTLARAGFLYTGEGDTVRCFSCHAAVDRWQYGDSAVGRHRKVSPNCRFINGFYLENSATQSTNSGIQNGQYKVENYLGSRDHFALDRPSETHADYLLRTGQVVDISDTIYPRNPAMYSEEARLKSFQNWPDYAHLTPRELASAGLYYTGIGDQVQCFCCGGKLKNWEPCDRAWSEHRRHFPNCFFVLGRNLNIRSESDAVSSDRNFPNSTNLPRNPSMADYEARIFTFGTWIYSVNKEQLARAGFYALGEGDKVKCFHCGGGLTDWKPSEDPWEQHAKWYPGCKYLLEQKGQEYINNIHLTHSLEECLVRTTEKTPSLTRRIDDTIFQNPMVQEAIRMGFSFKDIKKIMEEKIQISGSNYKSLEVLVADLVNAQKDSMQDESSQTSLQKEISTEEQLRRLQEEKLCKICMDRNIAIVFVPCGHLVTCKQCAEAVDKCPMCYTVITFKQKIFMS
Chain of Intestinal-type alkaline phosphatase (P24822 whole entry): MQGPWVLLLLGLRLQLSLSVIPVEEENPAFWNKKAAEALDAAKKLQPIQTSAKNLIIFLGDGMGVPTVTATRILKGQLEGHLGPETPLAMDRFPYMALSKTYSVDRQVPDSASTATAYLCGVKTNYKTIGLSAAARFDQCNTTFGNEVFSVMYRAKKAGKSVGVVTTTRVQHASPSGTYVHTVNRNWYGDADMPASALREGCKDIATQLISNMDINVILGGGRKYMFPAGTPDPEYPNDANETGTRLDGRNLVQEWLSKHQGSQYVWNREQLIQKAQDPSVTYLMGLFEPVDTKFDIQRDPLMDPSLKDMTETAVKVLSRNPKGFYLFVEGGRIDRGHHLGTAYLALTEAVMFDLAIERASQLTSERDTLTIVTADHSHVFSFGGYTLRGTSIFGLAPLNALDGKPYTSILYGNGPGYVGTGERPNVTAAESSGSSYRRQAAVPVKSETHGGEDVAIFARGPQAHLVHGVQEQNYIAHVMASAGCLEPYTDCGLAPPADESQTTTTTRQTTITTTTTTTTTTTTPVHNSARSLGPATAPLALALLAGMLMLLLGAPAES

Turning to `CCc1nnc(NS(=O)(=O)c2ccc(NC(=S)NC(=O)/C=C/c3ccc(C(C)C)cc3)cc2)s1`, the IC50 in test [1] is 22.9 µM (active); in test [2] it was > 20 µM (inactive).
As for `O=C(/C=C/c1ccco1)Nc1ccc(Oc2ccccc2)cc1`, the CC50 in test [3] is > 40 µM (active). The EC50 in the test “cells” is 6.08 µM (active). The AC50 is 4.47 µM (inconclusive) on Cytochrome P450 2D6 and 20 µM (inconclusive) at Cytochrome P450 1A2.
For the molecule `CC1CC(=O)c2c(cc3c(-c4c(O)cc(O)c5c(O)c6c(cc45)OC(C)CC6=O)c(O)cc(O)c3c2O)O1` (configuration not stated) [CEPHALOCHROMIN], the EC50 in [4] was 19.1 µM (active).
`COc1ccc(S(=O)(=O)Nc2cc(SCC(=O)O)c(O)c3ccccc23)cc1`: at Hexokinase HKDC1, the IC50 was 10.5 µM (active).
In the case of `COC(=O)C(O)(c1c(C)[nH]n(-c2ccccc2)c1=O)C(F)(F)F` (configuration not stated), the IC50 in test [5] is 2.43 µM (active).
For `O=C1C(Nc2ccc(O)cc2)=C/C(=N/S(=O)(=O)c2cccs2)c2ccccc21`, in [6], the EC50 is 2.88 µM (inconclusive). Further, the IC50 in test [7] was 41.8 µM (active). Moreover, the CC50 in test [8] was 2.59 µM (active).

The values above are taken from ChEMBL document CHEMBL1201862, “PubChem BioAssay data set” (2004).
